pKd: −log10 of the molar value.

In this assay the target is T1, VirF (Shigella flexneri, UniProt P0A2T1).
T1 construct: full ORF in pET15b, His-tagged (tag apparently kept)
T1 sequence (P0A2T1 whole entry): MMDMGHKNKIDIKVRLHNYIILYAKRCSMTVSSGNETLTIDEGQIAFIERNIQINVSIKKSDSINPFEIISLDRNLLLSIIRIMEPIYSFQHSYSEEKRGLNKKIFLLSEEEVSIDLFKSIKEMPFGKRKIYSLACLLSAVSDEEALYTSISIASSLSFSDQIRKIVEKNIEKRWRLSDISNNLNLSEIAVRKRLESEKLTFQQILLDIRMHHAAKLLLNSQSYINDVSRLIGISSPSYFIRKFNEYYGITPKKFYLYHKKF
Briefly: ELISA, fatty acid coated on plate, His-VirF detected by anti-His antibody. Conditions: read-out: apparent Kd. Format: binding. On the technique in general: An ELISA detects its analyte on a solid surface through an enzyme-linked reagent.
With `CCCCCCCCCCCCCCCCC/C=C\C(=O)O` [c2-EA], the pKd (as a rule, the negative decadic logarithm of the Kd, by convention in mol/L) was 4.95.

For `CCCCCCCCCCCCC/C=C\C(=O)O` [c2-HDA], the negative logarithm of the Kd (pKd) is 5.09.

Turning to `CCCCCCCC/C=C\CCCCCCCC(=O)O` [oleic acid], the pKd is 4.84.

As for `CCCCCC/C=C\CCCCCCCC(=O)O` [palmitoleic acid], the negative logarithm of the Kd (pKd) is 4.89.

As to `CCCCCCCCCCCCC/C=C/C(=O)O` [t2-HDA], the negative logarithm of the Kd (pKd) is 5.02.
